# Assays:
# Settings in all cases: synthetic library passage 3, intravenous, relative to wild-type AAV9
# [1] = test system: brain; experiment: NGS fold enrichment of synthetic library (passage 3) in C57Bl/6 mice, first cross-species screen; format: in vivo
# Method: (§1) After creation of the synthetic library with the sub-selected variants, the synthetic library was screened (passage 3) in two NHPs (2-4 years of age) and two strains of mice, BALB/c (n=3, 6-8 weeks of age) and C57Bl/6 mice (n=3, 6-8 weeks of age), in a first cross-species evolution screen. The animals were injected intravenously with the synthetic library. After a period in vivo, (e.g., 28-days) RNA was extracted from nervous tissue, e.g., brain, spinal cord, and DRG of the NHPs and the brains of mice. Following RNA recovery and RT-PCR amplification, a systematic NGS enrichment analysis was performed, and the peptides comprised within the variants were identified and the capsid enrichment ratio for each variant compared to the wild-type AAV9 control was calculated (fold enrichment relative to wild-type AAV9) (Table 9). […] All animals were dosed intravenously at […] across the screen.
# [2] = test system: brain, spinal cord, and DRG of the NHPs; experiment: NGS fold enrichment of synthetic library (passage 3) in NHPs, first cross-species screen; format: in vivo, cynomolgus macaques (Macaca fascicularis)
# Method: as §1
# [3] = test system: brain; experiment: NGS fold enrichment of synthetic library (passage 3) in BALB/c mice, first cross-species screen; format: in vivo
# Method: as §1
# [4] = RNA from brain of C57Bl/6 mice, NGS
# [5] = RNA from spinal cord of NHPs, NGS
# [6] = RNA from brain of BALB/c mice, NGS
Sequence,"Fold enrichment over AAV9 in the brain of Mice (C57Bl/6) ([1]; RNA NGS, brain of C57Bl/6 mice)","Fold enrichment over AAV9 in the brain of NHPs ([2]; RNA NGS, brain of NHPs)","Fold enrichment over AAV9 in the spinal cord of NHPs ([2]; RNA NGS, spinal cord of NHPs)","Fold enrichment over AAV9 in the brain of Mice (BALB/c) ([3]; RNA NGS, brain of BALB/c mice)","Fold enrichment over AAV9 in the brain of Mice (C57Bl/6) [1, 4]","Fold enrichment over AAV9 in the brain of NHPs ([2]; RNA from brain of NHPs, NGS)","Fold enrichment over AAV9 in the spinal cord of NHPs [2, 5]","Fold enrichment over AAV9 in the brain of Mice (BALB/c) [3, 6]"
GGGDLGRSSQNQQT,0.916 fold,3.036 fold,4.830 fold,0.539 fold,–,–,–,–
GGGPMAGSGQNQQT,1.049 fold,1.735 fold,2.815 fold,0.372 fold,–,–,–,–
GGGTKMDSGQNQQT,0.733 fold,3.034 fold,0.000 fold,0.297 fold,–,–,–,–
GGITWTDSGQNQQT,1.472 fold,1.462 fold,4.535 fold,0.468 fold,–,–,–,–
GGLGSMSSGQNQQT,1.802 fold,2.812 fold,1.405 fold,0.822 fold,–,–,–,–
GGLSHVMSGQNQQT,0.885 fold,1.875 fold,0.403 fold,0.378 fold,–,–,–,–
GGQVAPSSGQNQQT,1.433 fold,2.581 fold,2.427 fold,0.709 fold,–,–,–,–
GGRIVSLSGQNQQT,1.161 fold,1.766 fold,4.936 fold,0.847 fold,–,–,–,–
GGRNGHTVGQNQQT,1.105 fold,2.965 fold,3.732 fold,1.003 fold,–,–,–,–
GGSHTYGGGQNQQT,–,–,–,–,0.982 fold,1.241 fold,13.065 fold,0.730 fold
GGTRVVDSGQNQQT,0.676 fold,1.676 fold,9.735 fold,0.370 fold,–,–,–,–
GGVLVGGSGQNQQT,1.527 fold,2.778 fold,0.178 fold,0.688 fold,–,–,–,–
GGYHSQTSGQNQQT,1.740 fold,1.978 fold,2.642 fold,1.525 fold,–,–,–,–
GHAGSTGSGQNQQT,–,–,–,–,1.332 fold,1.352 fold,2.829 fold,1.233 fold
GHAHYQASGQNQQT,–,–,–,–,0.803 fold,1.377 fold,7.299 fold,0.745 fold
GHHTTVQSGQNQQT,0.851 fold,2.177 fold,6.245 fold,0.755 fold,–,–,–,–
GHLTMHNSGQNHQT,1.030 fold,1.938 fold,1.798 fold,0.586 fold,–,–,–,–
GHMKGVTSGQNQQT,0.807 fold,1.081 fold,2.814 fold,0.413 fold,–,–,–,–
GHPSPHVSGQNQQT,0.551 fold,1.713 fold,0.416 fold,0.488 fold,–,–,–,–

# Source: patent publication US20260250318A1, “COMPOSITIONS AND METHODS FOR CROSSING THE BLOOD BRAIN BARRIER” (VOYAGER THERAPEUTICS, INC., priority 2022, published 2026)
